Key:
[1] = tested on: patient-derived Pa03C tumors with CAFs; assay: Flank co-culture model of PDAC, APX3330 and Ruxolitinib; format: in vivo, mice
Protocol: Treatment of the implanted tumors started on day 11 post implant. Particularly, the co-cultures implanted included 2.5×10^6 tumor cells +/−5 ×10^6 CAFs, providing a 1:2 ratio of tumor cell to CAF. […] The mice were then administered either 50 mg/kg APX3330 BID in 4% Cr:EtOH, 50 mg/kg Rux SID pm in 4% Cr:EtOH, or combinations of the agents. Treatment schedule consisted of treating for 5 days and then giving 2 days off treatment until the tumors reached an average size of 2000 mm^3.

pancreatic tumor = assay: Xenograft model, APX3330 with gemcitabine; format: in vivo; conditions: APX3330 (25 mg/kg) combined with gemcitabine (35 mg/kg)
Excerpt: The data in FIG. 14C is tumor volume at sacrifice. Combination therapy was well-tolerated.

SMILES: CCCCCCCCC/C(=C\C1=C(C)C(=O)C(OC)=C(OC)C1=O)C(=O)O [APX3330]
- tumor volume ([1]; Ruxolitinib (Rux) in combination with APX3330): reduction in tumor volume
- average tumor size ([1]; combination therapy: 50 mg/kg APX3330 BID with 50 mg/kg Rux SID, day 31): 1200 mm^3
- average tumor size ([1]; treatment alone, 50 mg/kg, day 28): 1750 mm³
- tolerability of combination therapy (pancreatic tumor): well-tolerated
- tumor volume at sacrifice vs single agents alone (pancreatic tumor): significantly decreased tumor volume

Reference: US12350247B2, “Use of APE1/Ref-1 inhibitors for treatment of retinal diseases” (Indiana University Research and Technology Corporation, priority 2017, dated 2025)
